Measurements as given in PubChem BioAssay AID1918940 (Molecular Pharmacology Branch, DTP, NCI, 2023).

Tested on: NCI-H211 complex spheroid viability
Assay: Anticancer human tumor NCI-H211 cell line growth inhibition [LSD1];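 further: luminescent viability read after seven days of drug exposure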;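 on viability, T/C: 100% = DMSO vehicle control viability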
Settings: for IC50: curve of first compound; for viability, T/C: stronger effect = lower value
Text: Multicellular complex tumor spheroid response to LSD1 Inhibitor Iadademstat in combination with a variety of drugs and investigational agents in selected tumor cell lines
The current study was undertaken to assess response to LSD1 inhibitors in combination with standard-of-care drugs and investigational agents in solid tumor complex spheroid models as well as in the K-562 leukemia. Complex spheroids include a stromal component modeled by human endothelial cells (HUVEC) and fibroblasts modeled by human mesenchymal stem cells (MSCs). The concentration ranges selected for each drug and investigational agent were based upon clinically achievable concentrations if the clinical Cmax of the agent was known.
Compounds. The drugs and investigational agents used in this study are listed on Table 1. All of the agents used, including staurosporine (NSC755774) and gemcitabine (NSC613327), were obtained from the Developmental Therapeutics Program, NCI. FDA-approved anticancer drugs are available from the NCI at http://dtp.nci.nih.gov/branches/dscb/oncology_drugset_explanation.html. Drugs and investigational agents were >95% pure by proton nuclear magnetic resonance (NMR) and liquid chromatography/mass spectrometry (LC/MS). Stock solutions were prepared at 400x in DMSO, stored at -70 degrees C, and diluted in fresh medium prior to their use. The final concentration of DMSO in cell culture wells never exceeded 0.25% (v/v). The FDA-approved anticancer drug set is available from the Developmental Therapeutics Program at https://dtp.cancer.gov/organization/dscb/obtaining/available_plates.htm. All drugs and investigational agents were tested over a range starting from a high concentration at or near the clinical Cmax and decreasing in half-log increments. If the clinical Cmax for an agent had not been determined, the highest concentration tested was 10 microM.
Cell Lines. The patient-derived cancer cell (PDC) lines: 292921-168-R-J2-PDC, K24384-001-R-PDC, and 521955-158-R2-J5-PDC pancreatic carcinomas, 556581-035-R-J1 ovarian carcinoma, 324938-238-R-J1-PDC, 855422-203-R-J1-PDC and 883617-216-R-J1-PDC urothelial bladder carcinomas, 743489-274-T-PDC renal cell carcinoma, 138582-R-J1 Merkel cell tumor, K60290-347-R-J1 and K57222-313-R-J1-PDC glioblastomas, 653999-131-R-J2-PDC, LG0703-F948-PDC, and 349418-098-R-PDC non-small cell lung carcinomas, 885512-296-R-J2-PDC, 171881-019-R-J1-PDC breast carcinomas and 186277-243-T-J2-PDC and 233499-124-R-J2-PDC colon carcinomas were obtained from the NCI Patient-Derived Models Repository (PDMR, https://pdmr.cancer.gov). The established cell lines NCI/ADR-RES (RRID:CVCL_14520 and OVCAR-5 (RRID:CVCL_1628) ovarian carcinomas, 786-O (RRID:CVCL_1051) and A498 (RRID:CVCL_A498) renal cell carcinoma, NCI-H211 (ATCC, cat. CRL-5824; RRID:CVCL_1529), NCI-H196 (ATCC, cat. CRL-5823, RRID:CVCL_1509), SW 1271 (ATCC, cat. CRL-2177, RRID:CVCL_1716) and NCI-H1876 (ATCC, cat. CRL-5902, RRID:CVCL_1503) small cell lung carcinomas, MDA-MB-231 (RRID:CVCL_0062) and MDA-MB-468 (RRID:CVCL_0419)breast carcinomas (10-12). Pooled donor human umbilical vein endothelial cells (HUVEC, Lonza, cat. CC-2519) and human mesenchymal stem cells (hMSC, Lonza, cat. PT-2501) were purchased from Lonza (Walkersville, MD).
Cell Culture. All cells were maintained in an incubator at 37 degrees C and 5% CO2 with 95% humidity. The PDC lines were cultured according to standard operating procedures established by the NCI PDMR (https://pdmr.cancer.gov). Briefly all PDCs were thawed and cultured in Matrigel-coated flasks prepared with a working solution of 1X Ham's F-12 nutrient mix, without supplementation (Invitrogen, Waltham, MA, cat. 11765054), 100 U/mL penicillin-streptomycin (Invitrogen, cat. 15140122), and 2.5% Matrigel (Corning Inc., Corning, NY, cat. 354248) for the first three passages. […]

[1] = second compound 0.1 µM, first compound 0.000949 µM
[2] = second compound 0.1 µM, first compound 0.003 µM
[3] = second compound 0.1 µM, first compound 0.00949 µM
[4] = second compound 0.1 µM, first compound 0.03 µM
[5] = second compound 0.1 µM, first compound 0.0949 µM
[6] = second compound 0.1 µM, first compound 0.3 µM
[7] = second compound 0.316 µM, first compound 0.000949 µM
[8] = second compound 0.316 µM, first compound 0.003 µM
[9] = second compound 0.316 µM, first compound 0.00949 µM
[10] = second compound 0.316 µM, first compound 0.03 µM
[11] = second compound 0.316 µM, first compound 0.0949 µM
[12] = second compound 0.316 µM, first compound 0.3 µM
[13] = second compound 1 µM, first compound 0.000949 µM
[14] = second compound 1 µM, first compound 0.003 µM
[15] = second compound 1 µM, first compound 0.00949 µM
[16] = second compound 1 µM, first compound 0.03 µM
[17] = second compound 1 µM, first compound 0.0949 µM
[18] = second compound 1 µM, first compound 0.3 µM
[19] = second compound 3.16 µM, first compound 0.000949 µM
[20] = second compound 3.16 µM, first compound 0.003 µM
[21] = second compound 3.16 µM, first compound 0.00949 µM
[22] = second compound 3.16 µM, first compound 0.03 µM
[23] = second compound 3.16 µM, first compound 0.0949 µM
[24] = second compound 3.16 µM, first compound 0.3 µM
[25] = second compound 10 µM, first compound 0.000949 µM
[26] = second compound 10 µM, first compound 0.003 µM
[27] = second compound 10 µM, first compound 0.00949 µM
[28] = second compound 10 µM, first compound 0.03 µM
[29] = second compound 10 µM, first compound 0.0949 µM
[30] = second compound 10 µM, first compound 0.3 µM

`CCc1c2c(nc3ccc(O)cc13)-c1cc3c(c(=O)n1C2)COC(=O)[C@]3(O)CC` + NC1CC1c1ccc(-c2cccc(O)c2)cc1 was tested, and the IC50 (second compound 0.1 µM) was less than 949 pM, the IC50 (second compound 0.316 µM) was less than 949 pM and the IC50 (second compound 1 µM) was less than 949 pM. The IC50 (second compound 3.16 µM) was less than 949 pM, the IC50 (second compound 10 µM) was less than 949 pM and the viability, T/C [1] was 3.24%. For the same molecule, the viability, T/C [2] was 1.7%, the viability, T/C [3] was 2.13% and the viability, T/C [4] was 0.66%. For the same molecule, the viability, T/C [5] was 0.05%, the viability, T/C [6] was 0.14% and the viability, T/C [7] was 3.2%. It also gave a viability, T/C [8] of 1.12%, a viability, T/C [9] of 1.18% and a viability, T/C [10] of 1.44%. The viability, T/C [11] was 0.05%, the viability, T/C [12] was 0.15% and the viability, T/C [13] was 3.18%. The viability, T/C [14] was 1.68%, the viability, T/C [15] was 1.11% and the viability, T/C [16] was 0.97%. The viability, T/C [17] was 0.04%, the viability, T/C [18] was 0.16% and the viability, T/C [19] was 2.71%. The viability, T/C [20] was 1.57%, the viability, T/C [21] was 1.28% and the viability, T/C [22] was 0.83%. It also gave a viability, T/C [23] of 0.05%, a viability, T/C [24] of 0.2% and a viability, T/C [25] of 2.86%. The viability, T/C [26] was 1.99%, the viability, T/C [27] was 1.75% and the viability, T/C [28] was 1.25%. The viability, T/C [29] was 0.17% and the viability, T/C [30] was 0.2%.
Molecule `Nc1ccn(C2OC(CO)C(O)C2(F)F)c(=O)n1` (stereo not given) + NC1CC1c1ccc(-c2cccc(O)c2)cc1 has an IC50 (second compound 0.1 µM) of less than 949 pM, an IC50 (second compound 0.316 µM) of less than 949 pM and an IC50 (second compound 1 µM) of less than 949 pM. It also gave an IC50 (second compound 3.16 µM) of less than 949 pM, an IC50 (second compound 10 µM) of less than 949 pM and a viability, T/C [1] of 4.79%. The viability, T/C [2] was 3.12%, the viability, T/C [3] was 3.86% and the viability, T/C [4] was 4.15%. It also gave a viability, T/C [5] of 4.2%, a viability, T/C [6] of 3.74% and a viability, T/C [7] of 3.95%. The viability, T/C [8] was 4.1%, the viability, T/C [9] was 4.15% and the viability, T/C [10] was 3.65%. The viability, T/C [11] was 3.64%, the viability, T/C [12] was 3.81% and the viability, T/C [13] was 3.83%. The viability, T/C [14] was 4.15%, the viability, T/C [15] was 4.41% and the viability, T/C [16] was 3.58%. For the same molecule, the viability, T/C [17] was 3.35%, the viability, T/C [18] was 4.53% and the viability, T/C [19] was 5.21%. The viability, T/C [20] was 4.54%, the viability, T/C [21] was 4.13% and the viability, T/C [22] was 4.09%. The viability, T/C [23] was 3.28%, the viability, T/C [24] was 4.65% and the viability, T/C [25] was 4.67%. It also gave a viability, T/C [26] of 4.95%, a viability, T/C [27] of 4.53% and a viability, T/C [28] of 5.27%. It also gave a viability, T/C [29] of 3.89% and a viability, T/C [30] of 4.22%.
With `O=C(c1cc(Cc2n[nH]c(=O)c3ccccc23)ccc1F)N1CCN(C(=O)C2CC2)CC1` + NC1CC1c1ccc(-c2cccc(O)c2)cc1 the IC50 (second compound 0.1 µM) was less than 31600 pM, the IC50 (second compound 0.316 µM) was less than 31600 pM and the IC50 (second compound 1 µM) was less than 31600 pM. It also gave an IC50 (second compound 3.16 µM) of less than 31600 pM, an IC50 (second compound 10 µM) of less than 31600 pM and a viability, T/C (second compound 0.1 µM, first compound 0.0316 µM) of 47.4%. For the same molecule, the viability, T/C (second compound 0.1 µM, first compound 0.1 µM) was 25%, the viability, T/C (second compound 0.1 µM, first compound 0.316 µM) was 7.94% and the viability, T/C (second compound 0.1 µM, first compound 1 µM) was 5.7%. It also gave a viability, T/C (second compound 0.1 µM, first compound 3.16 µM) of 6.16%, a viability, T/C (second compound 0.1 µM, first compound 10 µM) of 5.03% and a viability, T/C (second compound 0.316 µM, first compound 0.0316 µM) of 48.9%. The viability, T/C (second compound 0.316 µM, first compound 0.1 µM) was 24.5%, the viability, T/C (second compound 0.316 µM, first compound 0.316 µM) was 8.13% and the viability, T/C (second compound 0.316 µM, first compound 1 µM) was 5.19%. The viability, T/C (second compound 0.316 µM, first compound 3.16 µM) was 4.85%, the viability, T/C (second compound 0.316 µM, first compound 10 µM) was 5.84% and the viability, T/C (second compound 1 µM, first compound 0.0316 µM) was 44%. It also gave a viability, T/C (second compound 1 µM, first compound 0.1 µM) of 22%, a viability, T/C (second compound 1 µM, first compound 0.316 µM) of 7.69% and a viability, T/C (second compound 1 µM, first compound 1 µM) of 5.3%. It also gave a viability, T/C (second compound 1 µM, first compound 3.16 µM) of 6.41%, a viability, T/C (second compound 1 µM, first compound 10 µM) of 5.15% and a viability, T/C (second compound 3.16 µM, first compound 0.0316 µM) of 49.2%. For the same molecule, the viability, T/C (second compound 3.16 µM, first compound 0.1 µM) was 19.5%, the viability, T/C (second compound 3.16 µM, first compound 0.316 µM) was 8.34% and the viability, T/C (second compound 3.16 µM, first compound 1 µM) was 5.75%. The viability, T/C (second compound 3.16 µM, first compound 3.16 µM) was 6.96%, the viability, T/C (second compound 3.16 µM, first compound 10 µM) was 5.88% and the viability, T/C (second compound 10 µM, first compound 0.0316 µM) was 34.4%. For the same molecule, the viability, T/C (second compound 10 µM, first compound 0.1 µM) was 17.2%, the viability, T/C (second compound 10 µM, first compound 0.316 µM) was 8.43% and the viability, T/C (second compound 10 µM, first compound 1 µM) was 5.92%. For the same molecule, the viability, T/C (second compound 10 µM, first compound 3.16 µM) was 6.26% and the viability, T/C (second compound 10 µM, first compound 10 µM) was 6.28%.
